The target of data set [1] is T1, Cytochrome P450 1A2 (Homo sapiens, UniProt P05177).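 Also: PubChem cytochrome P450 panel assay, CYP1A2 panel member.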
T1 sequence (P05177 whole entry): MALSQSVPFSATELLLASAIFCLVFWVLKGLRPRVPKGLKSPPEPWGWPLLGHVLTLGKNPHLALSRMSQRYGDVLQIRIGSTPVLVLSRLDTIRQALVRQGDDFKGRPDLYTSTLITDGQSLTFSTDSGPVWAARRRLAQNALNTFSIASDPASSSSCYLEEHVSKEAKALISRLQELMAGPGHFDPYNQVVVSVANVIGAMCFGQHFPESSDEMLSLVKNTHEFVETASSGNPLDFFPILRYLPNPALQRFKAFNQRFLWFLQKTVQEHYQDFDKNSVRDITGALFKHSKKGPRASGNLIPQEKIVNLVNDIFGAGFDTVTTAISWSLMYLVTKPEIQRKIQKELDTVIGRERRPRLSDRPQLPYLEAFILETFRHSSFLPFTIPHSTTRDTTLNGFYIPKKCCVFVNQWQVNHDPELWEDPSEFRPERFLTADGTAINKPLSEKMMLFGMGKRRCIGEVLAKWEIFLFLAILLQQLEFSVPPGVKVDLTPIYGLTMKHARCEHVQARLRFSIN

For data set [2], the target named is T2, Intestinal-type alkaline phosphatase (Homo sapiens, UniProt P09923). Put plainly: human IAP activators, dose response, biochemical, luminescent, uHTS hits, set 2 (AID 488817).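 Also: potency of activators that raise enzyme activity.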 In kind it is functional.
In data set [3] the test system is INS1. Kind of data set: beta cell apoptosis inhibitors, cytokine rescue, dose response, luminescence, retest (AID 449756).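 Also: cell death triggered by IL-1 beta plus TNF-alpha plus IFN-gamma mixture; protective hits raise ATP signal compared with cytokine alone wells.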 It is filed as functional, cell-based. As to conditions: Rattus norvegicus.
For data set [4], the target named is Intestinal-type alkaline phosphatase (Mus musculus, UniProt P24822). Kind of data set: PubChem AID 488875. In kind it is functional.
Data set [5] concerns the target T2, Intestinal-type alkaline phosphatase. Kind of data set: human intestinal alkaline phosphatase activators, dose response, biochemical, luminescence, uHTS hits (AID 463120). In kind it is functional.
Data set [6] deals with T3, Alkaline phosphatase, tissue-nonspecific isozyme (Homo sapiens, UniProt P05186).
T3 sequence (P05186 whole entry): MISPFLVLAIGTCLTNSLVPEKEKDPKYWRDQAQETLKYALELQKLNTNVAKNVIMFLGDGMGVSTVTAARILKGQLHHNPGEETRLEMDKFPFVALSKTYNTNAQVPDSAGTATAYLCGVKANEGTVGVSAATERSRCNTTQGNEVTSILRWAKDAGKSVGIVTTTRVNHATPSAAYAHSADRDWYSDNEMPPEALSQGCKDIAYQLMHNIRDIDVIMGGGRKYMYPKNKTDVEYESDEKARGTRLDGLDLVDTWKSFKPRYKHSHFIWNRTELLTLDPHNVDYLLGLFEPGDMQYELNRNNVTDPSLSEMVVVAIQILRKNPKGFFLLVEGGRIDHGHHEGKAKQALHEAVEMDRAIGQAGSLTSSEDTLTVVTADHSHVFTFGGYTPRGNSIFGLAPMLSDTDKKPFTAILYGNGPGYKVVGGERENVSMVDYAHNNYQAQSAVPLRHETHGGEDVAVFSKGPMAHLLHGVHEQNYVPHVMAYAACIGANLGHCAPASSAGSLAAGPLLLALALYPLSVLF
Kind of data set: TNAP enzyme activators, dose response, selectivity assay for human IAP activator project, biochemical, TNAP isozyme, human IAP uHTS hits (AID 488886).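 Also: potency of compounds raising TNAP activity as a selectivity check on IAP activators.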 In kind it is functional.

Data set [7] addresses Potassium voltage-gated channel subfamily KQT member 2 (Rattus norvegicus, UniProt O88943). Put plainly: KCNQ2 channel activators, analog series, SAR follow-up, automated patch clamp, KCNQ2-CHO cells (AID 493113). It is filed as functional. In general terms: In patch-clamp work, channel activity is measured electrically.
For data set [8], the target named is T4, Voltage-gated N-type calcium channel alpha-1B subunit/Amyloid beta A4 precursor protein-binding family A member 1 (Homo sapiens, UniProt Q00975+Q02410). Put plainly: disruptors of Mint-PDZ/N-type channel peptide interaction – biochemical, HTRF, SAR follow-up (AID 2489). It is filed as functional. (In TR-FRET formats the signal depends on donor and acceptor labels being close together.)

The target of data set [9] is T4, Voltage-gated N-type calcium channel alpha-1B subunit/Amyloid beta A4 precursor protein-binding family A member 1. Put plainly: disruptors of Mint-PDZ/N-type channel peptide interaction – biochemical, HTRF, set 2, SAR follow-up (AID 434980). It is filed as functional.
In data set [10] the target is SUMO E1/E2 (Homo sapiens, UniProt P63279+Q9UBE0+Q9UBT2). Kind of data set: SAR analysis of SUMOylation using HTRF in an in-Vitro dose response assay. [Related pubchem assays (depositor defined):AID2006, AID2011, AID2018, AID2069, AID2658]. In kind it is functional.

Calls of active or inactive are those of the source. Where only a bound is given, the exact number is not on record here.

T2 sequence (P09923 whole entry): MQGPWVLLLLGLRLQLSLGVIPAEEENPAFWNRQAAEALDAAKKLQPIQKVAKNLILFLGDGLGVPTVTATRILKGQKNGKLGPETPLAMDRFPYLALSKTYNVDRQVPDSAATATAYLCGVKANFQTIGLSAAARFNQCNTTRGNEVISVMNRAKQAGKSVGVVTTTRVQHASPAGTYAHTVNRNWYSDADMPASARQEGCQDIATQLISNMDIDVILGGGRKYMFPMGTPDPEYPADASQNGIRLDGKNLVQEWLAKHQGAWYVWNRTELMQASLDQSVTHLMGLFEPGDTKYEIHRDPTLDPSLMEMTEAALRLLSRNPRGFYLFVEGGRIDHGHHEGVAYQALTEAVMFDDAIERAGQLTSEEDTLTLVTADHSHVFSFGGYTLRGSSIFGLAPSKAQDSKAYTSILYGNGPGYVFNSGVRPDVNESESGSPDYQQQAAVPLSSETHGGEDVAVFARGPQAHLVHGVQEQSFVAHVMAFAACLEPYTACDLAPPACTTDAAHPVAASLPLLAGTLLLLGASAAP
T4 sequence (Q00975 whole entry): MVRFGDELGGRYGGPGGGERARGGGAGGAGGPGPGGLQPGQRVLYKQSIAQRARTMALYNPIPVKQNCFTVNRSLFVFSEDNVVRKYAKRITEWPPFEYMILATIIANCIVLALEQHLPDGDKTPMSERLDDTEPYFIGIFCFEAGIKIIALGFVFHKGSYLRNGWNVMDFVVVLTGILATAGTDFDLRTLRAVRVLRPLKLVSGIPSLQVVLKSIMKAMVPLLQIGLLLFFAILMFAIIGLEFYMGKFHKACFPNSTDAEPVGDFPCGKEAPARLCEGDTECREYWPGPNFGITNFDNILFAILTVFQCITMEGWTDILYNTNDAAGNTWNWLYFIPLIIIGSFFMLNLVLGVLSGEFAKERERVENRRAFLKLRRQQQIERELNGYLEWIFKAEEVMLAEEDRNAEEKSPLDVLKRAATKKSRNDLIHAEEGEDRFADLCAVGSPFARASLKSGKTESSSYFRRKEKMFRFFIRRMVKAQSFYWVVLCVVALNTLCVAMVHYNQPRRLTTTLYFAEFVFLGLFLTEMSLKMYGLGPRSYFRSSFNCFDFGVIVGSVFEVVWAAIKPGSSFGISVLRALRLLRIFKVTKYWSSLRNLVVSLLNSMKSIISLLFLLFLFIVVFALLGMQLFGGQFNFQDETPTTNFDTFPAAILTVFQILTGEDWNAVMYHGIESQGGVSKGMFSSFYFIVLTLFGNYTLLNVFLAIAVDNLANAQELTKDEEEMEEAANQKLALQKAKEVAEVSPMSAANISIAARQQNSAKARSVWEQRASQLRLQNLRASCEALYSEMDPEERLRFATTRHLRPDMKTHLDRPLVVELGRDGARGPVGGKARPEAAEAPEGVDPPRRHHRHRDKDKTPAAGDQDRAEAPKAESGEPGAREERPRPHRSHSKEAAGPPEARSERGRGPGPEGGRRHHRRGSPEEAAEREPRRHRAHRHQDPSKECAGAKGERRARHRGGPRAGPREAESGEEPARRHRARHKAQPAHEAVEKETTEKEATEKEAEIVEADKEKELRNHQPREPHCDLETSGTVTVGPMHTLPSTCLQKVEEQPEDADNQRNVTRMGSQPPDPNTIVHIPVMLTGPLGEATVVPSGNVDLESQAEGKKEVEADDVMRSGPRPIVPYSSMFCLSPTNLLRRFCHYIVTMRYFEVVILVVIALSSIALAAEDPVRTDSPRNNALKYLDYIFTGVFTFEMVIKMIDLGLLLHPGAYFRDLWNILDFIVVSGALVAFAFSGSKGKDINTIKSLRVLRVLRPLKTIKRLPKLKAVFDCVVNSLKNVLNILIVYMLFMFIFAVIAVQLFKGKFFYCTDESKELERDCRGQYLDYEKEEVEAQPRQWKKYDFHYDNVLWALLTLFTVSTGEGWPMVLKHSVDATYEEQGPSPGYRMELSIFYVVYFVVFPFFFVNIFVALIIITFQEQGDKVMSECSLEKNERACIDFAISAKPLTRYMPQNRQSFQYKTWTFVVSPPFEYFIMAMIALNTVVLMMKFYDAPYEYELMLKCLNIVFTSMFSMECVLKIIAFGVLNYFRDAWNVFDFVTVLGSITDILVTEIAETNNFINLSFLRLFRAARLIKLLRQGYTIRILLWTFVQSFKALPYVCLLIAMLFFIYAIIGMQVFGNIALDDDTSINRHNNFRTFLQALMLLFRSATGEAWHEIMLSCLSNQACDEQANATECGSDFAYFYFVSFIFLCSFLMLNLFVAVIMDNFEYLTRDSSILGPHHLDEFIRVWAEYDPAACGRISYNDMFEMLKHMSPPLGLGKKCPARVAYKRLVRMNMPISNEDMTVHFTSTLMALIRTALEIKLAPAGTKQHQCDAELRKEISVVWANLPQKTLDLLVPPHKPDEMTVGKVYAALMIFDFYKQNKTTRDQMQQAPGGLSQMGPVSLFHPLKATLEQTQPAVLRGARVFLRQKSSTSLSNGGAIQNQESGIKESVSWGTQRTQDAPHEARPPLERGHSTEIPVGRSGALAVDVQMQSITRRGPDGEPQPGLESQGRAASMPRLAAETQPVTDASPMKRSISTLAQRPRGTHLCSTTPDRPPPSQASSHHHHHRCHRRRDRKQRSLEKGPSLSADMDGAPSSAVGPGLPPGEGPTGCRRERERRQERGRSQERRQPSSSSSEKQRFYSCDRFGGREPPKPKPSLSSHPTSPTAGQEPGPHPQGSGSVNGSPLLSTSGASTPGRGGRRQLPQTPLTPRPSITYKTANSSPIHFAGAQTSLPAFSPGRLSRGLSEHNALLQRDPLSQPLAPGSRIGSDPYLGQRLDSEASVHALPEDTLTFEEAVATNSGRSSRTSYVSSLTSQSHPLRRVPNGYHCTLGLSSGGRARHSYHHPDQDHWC
T4 sequence (Q02410 whole entry): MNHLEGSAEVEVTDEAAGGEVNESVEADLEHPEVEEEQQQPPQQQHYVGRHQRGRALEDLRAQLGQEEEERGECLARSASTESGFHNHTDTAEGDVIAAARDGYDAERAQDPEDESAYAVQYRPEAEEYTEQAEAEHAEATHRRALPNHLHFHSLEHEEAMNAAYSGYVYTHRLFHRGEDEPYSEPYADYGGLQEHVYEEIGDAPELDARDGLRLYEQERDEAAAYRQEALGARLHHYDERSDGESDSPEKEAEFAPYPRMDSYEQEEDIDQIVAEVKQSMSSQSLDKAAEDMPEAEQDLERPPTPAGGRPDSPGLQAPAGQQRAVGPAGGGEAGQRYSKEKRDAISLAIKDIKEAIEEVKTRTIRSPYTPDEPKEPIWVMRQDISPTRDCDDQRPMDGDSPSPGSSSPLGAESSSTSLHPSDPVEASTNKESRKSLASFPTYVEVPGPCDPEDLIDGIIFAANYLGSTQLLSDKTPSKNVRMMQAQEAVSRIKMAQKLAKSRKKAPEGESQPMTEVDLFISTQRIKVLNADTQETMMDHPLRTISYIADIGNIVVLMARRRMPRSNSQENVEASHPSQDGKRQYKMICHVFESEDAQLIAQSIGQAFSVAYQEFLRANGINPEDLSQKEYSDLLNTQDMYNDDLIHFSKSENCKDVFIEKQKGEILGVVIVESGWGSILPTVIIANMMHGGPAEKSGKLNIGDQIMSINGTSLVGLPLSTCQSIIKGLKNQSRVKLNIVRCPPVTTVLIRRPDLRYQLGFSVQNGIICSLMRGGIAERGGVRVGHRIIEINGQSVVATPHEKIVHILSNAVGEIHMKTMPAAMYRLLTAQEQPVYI
SUMO E1/E2, sequence (Q9UBE0 whole entry): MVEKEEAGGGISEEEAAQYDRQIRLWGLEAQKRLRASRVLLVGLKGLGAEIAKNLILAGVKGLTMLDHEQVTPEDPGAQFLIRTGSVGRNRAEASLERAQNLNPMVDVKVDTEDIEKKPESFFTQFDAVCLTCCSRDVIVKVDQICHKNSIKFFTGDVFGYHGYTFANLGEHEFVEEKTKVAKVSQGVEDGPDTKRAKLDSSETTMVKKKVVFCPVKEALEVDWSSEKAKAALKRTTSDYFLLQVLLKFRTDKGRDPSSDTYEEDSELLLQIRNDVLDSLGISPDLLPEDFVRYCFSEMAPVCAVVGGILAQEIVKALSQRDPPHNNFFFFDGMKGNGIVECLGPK
SUMO E1/E2, sequence (Q9UBT2 whole entry): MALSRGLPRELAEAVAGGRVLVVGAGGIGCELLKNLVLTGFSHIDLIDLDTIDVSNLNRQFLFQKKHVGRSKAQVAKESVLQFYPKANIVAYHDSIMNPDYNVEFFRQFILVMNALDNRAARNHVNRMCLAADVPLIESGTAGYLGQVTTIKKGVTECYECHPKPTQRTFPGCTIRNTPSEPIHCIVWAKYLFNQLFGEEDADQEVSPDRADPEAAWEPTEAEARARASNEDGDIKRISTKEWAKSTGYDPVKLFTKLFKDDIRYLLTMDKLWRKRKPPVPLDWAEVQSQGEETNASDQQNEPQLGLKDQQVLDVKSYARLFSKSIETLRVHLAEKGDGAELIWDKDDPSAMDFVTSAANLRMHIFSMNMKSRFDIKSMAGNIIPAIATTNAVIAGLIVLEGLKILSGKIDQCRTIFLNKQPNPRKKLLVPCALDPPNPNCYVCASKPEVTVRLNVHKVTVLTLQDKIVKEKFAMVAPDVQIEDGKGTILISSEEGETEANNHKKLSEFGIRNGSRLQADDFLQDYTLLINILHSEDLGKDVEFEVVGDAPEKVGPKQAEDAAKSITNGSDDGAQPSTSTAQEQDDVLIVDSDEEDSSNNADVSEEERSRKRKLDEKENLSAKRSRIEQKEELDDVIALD
SUMO E1/E2, sequence (P63279 whole entry): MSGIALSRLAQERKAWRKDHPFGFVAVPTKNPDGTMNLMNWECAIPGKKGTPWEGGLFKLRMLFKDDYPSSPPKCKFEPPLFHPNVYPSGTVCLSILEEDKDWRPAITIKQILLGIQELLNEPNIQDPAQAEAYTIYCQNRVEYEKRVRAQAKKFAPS

The term AC50 denotes the midpoint of the concentration-response curve, whichever way the signal moves. For the compound `C[C@@H]1COc2c(N3CCN(C)CC3)c(F)cc3c(=O)c(C(=O)O)cn1c23` [DEXTROFLOXACINE], the AC50 entry in data set [1] is “inactive”.
The term EC50 denotes the midpoint of the concentration-response curve. Take `Cc1ccc(O)c(/C=N/NC(=O)c2[nH]ncc2Br)c1`: the EC50 in [2] was 47.6 µM (active); in [4] it was > 100 µM (inactive); in data set [5], 7.61 µM (active); in data set [6], 49.6 µM (active). In addition, the AC50 in data set [3] is 33.5 µM (active).
Regarding `O=C(Nc1ccc2ccccc2c1)C1CC2CCC1C2` (stereo not given), the EC50 in [7] was 0.6 µM (active).
For orientation: IC50 means the point on the concentration scale where inhibition reaches its midpoint. Take `COc1ccc(CNC(=O)COC(=O)c2cc(-c3ccco3)nc3ccccc23)cc1OC`: the IC50 in [8] is > 56.8 µM (inactive); in data set [9], 5.49 µM (active); in [10], 6.04 µM (active).
